Reference: article PMC6278284, “Synthesis of Jacaranone-Derived Nitrogenous Cyclohexadienones and Their Antiproliferative and Antiprotozoal Activities” (Molecules, 2018)
pIC50: −log10 of the molar value. Like-named read-outs stand apart in the source and are kept apart here.

How the values were obtained:
[1] = system: L6 cells rat skeletal myoblasts; experiment: Cytotoxicity against L6 cells (Alamar Blue); type: cell-based; conditions: L6 rat skeletal myoblasts, 72 h; read-out: Cyt. L6 IC50
Protocol: Assays were performed in 96-well microtiter plates, each well containing 100 μL of RPMI 1640 medium supplemented with 1% L-glutamine (200 mM) and 10% foetal bovine serum, and 4000 L6 cells (a […] cell line derived from rat skeletal myoblasts). Serial drug dilutions of 11 threefold dilution steps covering a range from 100 to 0.002 μg/mL were prepared. After 72 h of incubation, the plates were inspected under an inverted microscope to assure growth of the controls and sterile conditions. 10 μL of Alamar Blue solution was then added to each well and the plates incubated for another 2 h. Then, the plates were read with a Spectramax Gemini XS microplate fluorometer (Molecular Devices Cooperation, Sunnyvale, CA, USA) using an excitation wavelength of 536 nm and an emission wavelength of 588 nm. The IC50 values were calculated by linear regression from the sigmoidal dose inhibition curves using the microplate reader software, Softmax Pro (Molecular Devices Cooperation, Sunnyvale, CA, USA). Podophyllotoxin (Sigma P4405) was used as the control.

[2] = system: MDA-MB-231 breast cancer cells; experiment: XTT viability assay, MDA-MB-231; type: cell-based; conditions: Homo sapiens, 72 h, read-out: metabolic active cells in % of control; for viability at 5 µg/mL: MDA-MB-231, 5 µg/mL; for viability at 50 µg/mL: MDA-MB-231, 50 µg/mL
Protocol: (§1) Human CCRF-CEM leukemia and MDA-MB-231 breast cancer cells lines were kept in RPMI1640 medium (Gibco®, ThermoFisher Scientific Inc., New York, NY, USA), supplemented with 2 mM L-glutamine (Gibco®), 10% heat-inactivated foetal bovine serum (FBS, Gibco®), 100 units/mL Penicillin (PAA), and 100 µg/mL Streptomycin (Gibco®) (1% Pen/Strep). HCT-116 and U251 cells were cultured in high-glucose Dulbecco’s Modified Eagle Medium (DMEM, Gibco®) containing 2 mM L-glutamine, 10% FBS, and 1% Pen/Strep. MRC-5 cells were grown in Minimum Essential Medium (MEM, Gibco®) supplemented with 2 mM L-glutamine, 10% FBS, and 1% Pen/Strep. All cells were kept in a humidified 5% CO2 atmosphere at 37 °C and passaged at 90% confluence.
(§2) A Cell Proliferation Kit II (XTT) was purchased from Sigma-Aldrich and performed as described previously and in accordance with the manufacturer’s protocol. In brief, adherent cell lines were seeded at a density of 50,000 cells/mL or 100,000 cells/mL (MRC-5) in 96 well plates (100 µL, flat bottom) and grown for 24 h before test compounds were added. Suspension cells (CCRF-CEM) were seeded at 100,000 cells/mL and test compounds were added immediately. After 72 h, XTT solution was added for another 90 min or 4 h (CCRF-CEM cells) and absorbance was measured at 490 nm with a reference wave length of 650 nm (Hidex Sense Microplate Reader 425-301, Hidex, Turku, Finland). Results are expressed as a percentage of the vehicle-treated (0.5% DMSO) control cells. Vinblastine served as the positive control (0.01 µg/mL).

[3] = system: MRC-5 non-tumorigenic lung fibroblasts; experiment: XTT viability assay, MRC-5; type: cell-based, human; conditions: 72 h; for viability at 5 µg/mL / viability at 50 µg/mL: Homo sapiens, MRC5, read-out: metabolic active cells in % of control; for viability at 5 µg/mL: MRC-5, 5 µg/mL; for viability at 50 µg/mL: MRC-5, 50 µg/mL; for cytotoxicity against human MRC-5 cells (in words): 5 µg/mL
Protocol: as §1, §2

[4] = system: human (cancer) cell lines (CCRF-CEM, MDA-MB-231, HCT-116, U251, MRC-5); experiment: XTT viability assay, statements on the whole panel of cell lines; type: cell-based; conditions: 72 h; for metabolic activity, % of the control: in all (13i) or almost all (13b) cell lines; for overall cytotoxicity (in words): 50 µg/mL, panel of cell lines
Protocol: All synthesized dienones (13a–j, 14a, 14c, and 15) were evaluated for their cytotoxic activity against human (cancer) cell lines. To cover a range of different tumor entities, we used a panel of cancer cell lines (CCRF-CEM leukemia, MDA-MB-231 breast cancer, HCT-116 colon cancer, and U251 glioblastoma cells) as well as a non-tumorigenic human cell line (MRC-5 lung fibroblasts). All derivatives were screened for their cytotoxicity at 5 µg/mL and 50 µg/mL to cover a broad concentration range. Cells were exposed to the derivatives for 72 h. […] No clear correlation between cytotoxic and antiprotozoal effects could be drawn. […] Human CCRF-CEM leukemia and MDA-MB-231 breast cancer cells lines were kept in RPMI1640 medium (Gibco®, ThermoFisher Scientific Inc., New York, NY, USA), supplemented with 2 mM L-glutamine (Gibco®), 10% heat-inactivated foetal bovine serum (FBS, Gibco®), 100 units/mL Penicillin (PAA), and 100 µg/mL Streptomycin (Gibco®) (1% Pen/Strep). HCT-116 and U251 cells were cultured in high-glucose Dulbecco’s Modified Eagle Medium (DMEM, Gibco®) containing 2 mM L-glutamine, 10% FBS, and 1% Pen/Strep. MRC-5 cells were grown in Minimum Essential Medium (MEM, Gibco®) supplemented with 2 mM L-glutamine, 10% FBS, and 1% Pen/Strep. All cells were kept in a humidified 5% CO2 atmosphere at 37 °C and passaged at 90% confluence. A Cell Proliferation Kit II (XTT) was purchased from Sigma-Aldrich and performed as described previously and in accordance with the manufacturer’s protocol. In brief, adherent cell lines were seeded at a density of 50,000 cells/mL or 100,000 cells/mL (MRC-5) in 96 well plates (100 µL, flat bottom) and grown for 24 h before test compounds were added. Suspension cells (CCRF-CEM) were seeded at 100,000 cells/mL and test compounds were added immediately. After 72 h, XTT solution was added for another 90 min or 4 h (CCRF-CEM cells) and absorbance was measured at 490 nm with a reference wave length of 650 nm (Hidex Sense Microplate Reader 425-301, Hidex, Turku, Finland). Results are expressed as a percentage of the vehicle-treated (0.5% DMSO) control cells. Vinblastine served as the positive control (0.01 µg/mL).

[5] = system: T. brucei rhodesiense, strain STIB900 trypomastigote forms; experiment: In vitro growth inhibition assay of Trypanosoma brucei rhodesiense (Alamar Blue); type: cell-based; conditions: for pIC50: 72 h, strain STIB900, trypomastigote forms, read-out: T.b.rhod. IC50; for SI (IC50 in L6 cells/IC50 T. b. rhodesiense): ratio IC50 L6 / IC50 T. b. rhodesiense STIB900
Protocol: Trypanosoma brucei rhodesiense, STIB 900 strain, and the standard drug, melarsoprol, were used for the assay. Minimum Essential Medium (50 μL) supplemented with 25 mM HEPES, 1g/L additional glucose, 1% MEM non-essential amino acids (100×), 0.2 mM 2-mercaptoethanol, 1 mM Na-pyruvate, and 15% heat-inactivated horse serum was added to each well of a 96-well microtiter plate. Serial drug dilutions of 11 three-fold dilution steps covering a range from 100 to 0.002 μg/mL were prepared. Then, 4 × 10^3 bloodstream forms of T. b. rhodesiense (STIB 900) in 50 μL were added to each well and the plate was incubated at 37 °C under a 5% CO2 atmosphere for 72 h. 10 μL Alamar Blue (resazurin, 12.5 mg in 100 mL double-distilled water) was then added to each well and incubation continued for a further 2–4 h. Then, the plates were read with a Spectramax Gemini XS microplate fluorometer (Molecular Devices Cooperation, Sunnyvale, CA, USA) using an excitation wavelength of 536 nm and an emission wavelength of 588 nm. The IC50 values were calculated from the sigmoidal inhibition curves using the microplate reader software, Softmax Pro (Molecular Devices Cooperation, Sunnyvale, CA, USA). Melarsoprol was used as the control.

| pIC50 ([5]; Trypanosoma brucei) | pIC50 [5] | Compound | pIC50 [1] | viability at 5 µg/mL [2] | viability at 50 µg/mL [2] | viability at 5 µg/mL [3] | viability at 50 µg/mL [3] | metabolic activity, % of the control ([4]; 5 µg/mL) | SI (IC50 in L6 cells/IC50 T. b. rhodesiense) [5] | cytotoxicity against human MRC-5 cells (in words) [3] | overall cytotoxicity (in words) [4] | cytotoxicity against most cell lines (in words) ([4]; 5 µg/mL) |
| --- | --- | --- | --- | --- | --- | --- | --- | --- | --- | --- | --- | --- |
| 6.01 |  | O=C1C=CC(O)(CCN2C(=O)C3CC=CCC3C2=O)C=C1 (centres unmarked) [Compound 13j, N-[2-(1-Hydroxy-4-oxocyclohexa-2,5-dien-1-yl)ethyl]-1,2,3,6-tetrahydrophthalimide] | 5.09 | 87.7% | 89% | 96.1% | 50.3% |  | 8.3 | did not show any cytotoxicity | negligible |  |
| 6.24 |  | O=C1C=CC(O)(CCN2Cc3ccccc3C2)C=C1 [Compound 14a, N-[2-(1-Hydroxy-4-oxocyclohexa-2,5-dien-1-yl)ethyl]isoindoline] | 5.55 | 95% | 92.5% | 119% | 95.1% |  | 4.9 | did not show any cytotoxicity | negligible |  |
| 6.57 |  | O=C1C=CC(O)(CCN2CCOCC2)C=C1 [Compound 14c, N-[2-(1-Hydroxy-4-oxocyclohexa-2,5-dien-1-yl)ethyl]morpholine] | 5.46 | 56.8% | 4.33% | 141% | 0.79% |  | 12.9 |  |  | only minor cytotoxicity |

Further lines, the compound ahead of its results:

| Compound | pIC50 ([5]; Trypanosoma brucei) | pIC50 [5] | pIC50 [1] | viability at 5 µg/mL [2] | viability at 50 µg/mL [2] | viability at 5 µg/mL [3] | viability at 50 µg/mL [3] | metabolic activity, % of the control ([4]; 5 µg/mL) | SI (IC50 in L6 cells/IC50 T. b. rhodesiense) [5] | cytotoxicity against human MRC-5 cells (in words) [3] | overall cytotoxicity (in words) [4] | cytotoxicity against most cell lines (in words) ([4]; 5 µg/mL) |
| --- | --- | --- | --- | --- | --- | --- | --- | --- | --- | --- | --- | --- |
| O=C1C=CC(O)(CCN2C(=O)C=CC2=O)C=C1 [Compound 13b, N-[2-(1-Hydroxy-4-oxocyclohexa-2,5-dien-1-yl)ethyl]maleimide] | 5.67 |  | 4.57 | 1.71% | 6.61% | 14.6% | 0.62% | below 40 % of the control | 12.5 |  |  |  |
| O=C1C=CC(O)(CCN2C(=O)c3cccnc3C2=O)C=C1 [Compound 13f, N-[2-(1-Hydroxy-4-oxocyclohexa-2,5-dien-1-yl)ethyl]pyridine-2,3-dicarboximide] |  |  | 3.81 | 112% | 23% | 109% | 112% |  | 3.4 | did not show any cytotoxicity | negligible |  |
| O=C1C=CC(O)(CCN2C(=O)COCC2=O)C=C1 [Compound 13g, N-[2-(1-Hydroxy-4-oxocyclohexa-2,5-dien-1-yl)ethyl]morpholine-3,5-dione] | < 5.00 | 4.81 | 4.11 | 104% | 7.63% | 116% | 89.6% |  | 5.1 | did not show any cytotoxicity | negligible |  |
| O=C1C=CC(O)(CCN2C(=O)C3=C(CCCC3)C2=O)C=C1 [Compound 13i, N-[2-(1-Hydroxy-4-oxocyclohexa-2,5-dien-1-yl)ethyl]-3,4,5,6-tetrahydrophthalimide] | 6.10 |  | 5.45 | 32.4% | 16.6% | 5.69% | 0.51% | below 40 % of the control |  |  |  |  |
